# Laboratory results: patent US6355799B1, “Substituted benzene compounds, process for their preparation, and herbicidal and defoliant compositions containing them” (ISK Americas Incorporated, priority 1997, dated 2002)
# Tests used:
# Assay type in all cases: in vivo
# [1] = test system: redroot pigweed (Amaranthus retroflexus, AMARE); test: Pre-emerge test, greenhouse herbicide activity screening; conditions: pre-emerge, rated 14 days after application, 0 = no damage, 100 = complete death
# Summary of the method: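 Rating: 0–100 visual injury, 14 DAA. Application: acetone, 187 l/ha, 15–1000 g ai/ha, flat-fan track sprayer with nozzle 40–45 cm above soil or canopy. Post-emerge runs used 0.25% v/v surfactant on 2–3 leaf plants.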
# [2] = test system: velvetleaf (Abutilon theophrasti, ABUTH); test: Post-emerge test, greenhouse herbicide activity screening; conditions: phytotoxicity rating 0-100 (0 no damage, 100 complete death), 14 days after application
# Summary of the method: (§1)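 Fourteen days after spraying, crop and weed injury was graded visually from 0, no effect, to 100, every plant dead. Test substances were dissolved in acetone and applied at 15–1000 g ai/ha with a flat-fan nozzle. Application was either pre-emergence, one day after sowing, or post-emergence at the 2–3 leaf stage.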
# [3] = test system: redroot pigweed (Amaranthus retroflexus, AMARE); test: as above; conditions: phytotoxicity rating 0-100 (0 no damage, 100 complete death), 14 days after application
# Summary of the method: as §1
# [4] = test system: large crabgrass (Digitaria sanguinalis, DIGSA); test: as above; conditions: phytotoxicity rating 0-100 (0 no damage, 100 complete death), 14 days after application
# Summary of the method: as §1
# [5] = test system: lambsquarters (Chenopodium album, CHEAL); test: as above; conditions: phytotoxicity rating 0-100 (0 no damage, 100 complete death), 14 days after application
# Summary of the method: as §1
# [6] = test system: barnyardgrass (Echinochloa crus-galli, ECHCG); test: as above; conditions: phytotoxicity rating 0-100 (0 no damage, 100 complete death), 14 days after application
# Summary of the method: as §1
# [7] = test system: ivyleaf morningglory (Ipomoea hederacea, IPOHE); test: as above; conditions: phytotoxicity rating 0-100 (0 no damage, 100 complete death), 14 days after application
# Summary of the method: as §1
# [8] = test system: common ragweed (Ambrosia artemisizfolia L., AMBEL); test: as above; conditions: phytotoxicity rating 0-100 (0 no damage, 100 complete death), 14 days after application
# Summary of the method: as §1
# [9] = test system: sicklepod (Cassia obtusifolia, CASOB); test: as above; conditions: phytotoxicity rating 0-100 (0 no damage, 100 complete death), 14 days after application
# Summary of the method: as §1
# [10] = test system: green foxtail (Setaria viridis, SETVI); test: as above; conditions: phytotoxicity rating 0-100 (0 no damage, 100 complete death), 14 days after application
# Summary of the method: as §1
# [11] = test system: johnsongrass (Sorghum halepense, SORHA); test: as above; conditions: phytotoxicity rating 0-100 (0 no damage, 100 complete death), 14 days after application
# Summary of the method: as §1
# [12] = test system: upland rice (Oryza sp., var. Tebonnet, RICE); test: Pre-emerge test, crop safety; conditions: pre-emerge, rated 14 days after application, 0 = no damage, 100 = complete death
# Summary of the method: (§2)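 Compounds in acetone were track-sprayed at 15-1000 g ai/ha (187 l/ha) on sandy loam pots: pre-emerge one day after seeding, post-emerge at 2-3 leaf stage with 0.25% v/v non-ionic surfactant. Phytotoxicity was rated 14 days later on a 0 (no damage) to 100 (complete death) scale.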
# [13] = test system: field corn (Zea mays L., var. Dekalb 535, CORN); test: Pre-emerge test, crop safety; conditions: pre-emerge, rated 14 days after application, 0 = no damage, 100 = complete death
# Summary of the method: as §2
# [14] = test system: velvetleaf (Abutilon theophrasti, ABUTH); test: Pre-emerge test, greenhouse herbicide activity screening; conditions: pre-emerge, rated 14 days after application, 0 = no damage, 100 = complete death
# Summary of the method: (§3)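 Plants grown in 10 cm pots of sandy loam mix received acetone-dissolved compounds through a moving flat-fan nozzle. Doses ranged from 15 to 1000 g ai/ha. Pre-emerge pots were seeded one day earlier, post-emerge pots 8–21 days earlier. Fourteen days on, each pot was graded 0–100 for damage.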
# [15] = test system: large crabgrass (Digitaria sanguinalis, DIGSA); test: as above; conditions: pre-emerge, rated 14 days after application, 0 = no damage, 100 = complete death
# Summary of the method: as §3
# [16] = test system: lambsquarters (Chenopodium album, CHEAL); test: as above; conditions: pre-emerge, rated 14 days after application, 0 = no damage, 100 = complete death
# Summary of the method: as §3
# [17] = test system: barnyardgrass (Echinochloa crus-galli, ECHCG); test: as above; conditions: pre-emerge, rated 14 days after application, 0 = no damage, 100 = complete death
# Summary of the method: as §3
# [18] = test system: ivyleaf morningglory (Ipomoea hederacea, IPOHE); test: as above; conditions: pre-emerge, rated 14 days after application, 0 = no damage, 100 = complete death
# Summary of the method: as §3
# [19] = test system: sicklepod (Cassia obtusifolia, CASOB); test: as above; conditions: pre-emerge, rated 14 days after application, 0 = no damage, 100 = complete death
# Summary of the method: as §3
# [20] = test system: green foxtail (Setaria viridis, SETVI); test: as above; conditions: pre-emerge, rated 14 days after application, 0 = no damage, 100 = complete death
# Summary of the method: as §3
# [21] = test system: johnsongrass (Sorghum halepense, SORHA); test: as above; conditions: pre-emerge, rated 14 days after application, 0 = no damage, 100 = complete death
# Summary of the method: as §3
# [22] = test system: upland rice (Oryza sp., var. Tebonnet, RICE); test: Post-emerge test, crop safety; conditions: phytotoxicity rating 0-100 (0 no damage, 100 complete death), 14 days after application
# Summary of the method: (§4)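 Each test used a mechanized track sprayer delivering 187 l/ha of acetone solution at 15–1000 g ai/ha. Post-emerge foliage at 2–3 leaves was treated with added 0.25% v/v non-ionic surfactant and bottom-watered only. Injury was assessed on day 14, where 100 means total kill.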
# [23] = test system: field corn (Zea mays L., var. Dekalb 535, CORN); test: Post-emerge test, crop safety; conditions: phytotoxicity rating 0-100 (0 no damage, 100 complete death), 14 days after application
# Summary of the method: as §4
structure (smiles),measurement,setting,value
CCn1c(C(F)(F)F)cc(=O)n(-c2c(F)cc(Cl)c(OC)c2N)c1=O [Compound 1-15],"Pre-emerge Herbicidal Activity AMARE (phytotoxicity rating, scale 0-100)",[1]; 63 g ai/ha,0
same,"Pre-emerge Herbicidal Activity AMARE (phytotoxicity rating, scale 0-100)",[1]; 250 g ai/ha,20
same,Post-emerge Herbicidal Activity ABUTH,[2]; 63 g ai/ha,30
same,Post-emerge Herbicidal Activity ABUTH,[2]; 250 g ai/ha,50
same,Post-emerge Herbicidal Activity AMARE,[3]; 63 g ai/ha,0
same,Post-emerge Herbicidal Activity AMARE,[3]; 250 g ai/ha,30
same,Post-emerge Herbicidal Activity DIGSA,[4]; 63 g ai/ha,0
same,Post-emerge Herbicidal Activity DIGSA,[4]; 250 g ai/ha,0
same,Post-emerge Herbicidal Activity CHEAL,[5]; 63 g ai/ha,0
same,Post-emerge Herbicidal Activity CHEAL,[5]; 250 g ai/ha,20
same,Post-emerge Herbicidal Activity ECHCG,[6]; 63 g ai/ha,0
same,Post-emerge Herbicidal Activity ECHCG,[6]; 250 g ai/ha,0
same,Post-emerge Herbicidal Activity IPOHE,[7]; 63 g ai/ha,0
same,Post-emerge Herbicidal Activity IPOHE,[7]; 250 g ai/ha,40
same,Post-emerge Herbicidal Activity AMBEL,[8]; 63 g ai/ha,0
same,Post-emerge Herbicidal Activity AMBEL,[8]; 250 g ai/ha,0
same,Post-emerge Herbicidal Activity CASOB,[9]; 63 g ai/ha,0
same,Post-emerge Herbicidal Activity CASOB,[9]; 250 g ai/ha,0
same,Post-emerge Herbicidal Activity SETVI,[10]; 63 g ai/ha,0
same,Post-emerge Herbicidal Activity SETVI,[10]; 250 g ai/ha,0
same,Post-emerge Herbicidal Activity SORHA,[11]; 63 g ai/ha,0
same,Post-emerge Herbicidal Activity SORHA,[11]; 250 g ai/ha,0
same,"Pre-emerge crop damage RICE (phytotoxicity rating, scale 0-100)",[12]; 63 g ai/ha,10
same,"Pre-emerge crop damage RICE (phytotoxicity rating, scale 0-100)",[12]; 250 g ai/ha,30
same,"Pre-emerge crop damage CORN (phytotoxicity rating, scale 0-100)",[13]; 63 g ai/ha,0
same,"Pre-emerge crop damage CORN (phytotoxicity rating, scale 0-100)",[13]; 250 g ai/ha,0
same,"Pre-emerge Herbicidal Activity ABUTH (phytotoxicity rating, scale 0-100)",[14]; 63 g ai/ha,20
same,"Pre-emerge Herbicidal Activity ABUTH (phytotoxicity rating, scale 0-100)",[14]; 250 g ai/ha,90
same,"Pre-emerge Herbicidal Activity DIGSA (phytotoxicity rating, scale 0-100)",[15]; 63 g ai/ha,0
same,"Pre-emerge Herbicidal Activity DIGSA (phytotoxicity rating, scale 0-100)",[15]; 250 g ai/ha,90
same,"Pre-emerge Herbicidal Activity CHEAL (phytotoxicity rating, scale 0-100)",[16]; 63 g ai/ha,40
same,"Pre-emerge Herbicidal Activity CHEAL (phytotoxicity rating, scale 0-100)",[16]; 250 g ai/ha,50
same,"Pre-emerge Herbicidal Activity ECHCG (phytotoxicity rating, scale 0-100)",[17]; 63 g ai/ha,0
same,"Pre-emerge Herbicidal Activity ECHCG (phytotoxicity rating, scale 0-100)",[17]; 250 g ai/ha,0
same,"Pre-emerge Herbicidal Activity IPOHE (phytotoxicity rating, scale 0-100)",[18]; 63 g ai/ha,0
same,"Pre-emerge Herbicidal Activity IPOHE (phytotoxicity rating, scale 0-100)",[18]; 250 g ai/ha,0
same,"Pre-emerge Herbicidal Activity CASOB (phytotoxicity rating, scale 0-100)",[19]; 63 g ai/ha,0
same,"Pre-emerge Herbicidal Activity CASOB (phytotoxicity rating, scale 0-100)",[19]; 250 g ai/ha,0
same,"Pre-emerge Herbicidal Activity SETVI (phytotoxicity rating, scale 0-100)",[20]; 63 g ai/ha,70
same,"Pre-emerge Herbicidal Activity SETVI (phytotoxicity rating, scale 0-100)",[20]; 250 g ai/ha,80
same,"Pre-emerge Herbicidal Activity SORHA (phytotoxicity rating, scale 0-100)",[21]; 63 g ai/ha,0
same,"Pre-emerge Herbicidal Activity SORHA (phytotoxicity rating, scale 0-100)",[21]; 250 g ai/ha,20
same,Post-emerge Herbicidal Activity RICE (crop damage),[22]; 63 g ai/ha,0
same,Post-emerge Herbicidal Activity RICE (crop damage),[22]; 250 g ai/ha,0
same,Post-emerge Herbicidal Activity CORN (crop damage),[23]; 63 g ai/ha,0
same,Post-emerge Herbicidal Activity CORN (crop damage),[23]; 250 g ai/ha,0
